ChEMBL document CHEMBL1212880, “Discovery of (2,4-dihydroxy-5-isopropylphenyl)-[5-(4-methylpiperazin-1-ylmethyl)-1,3-dihydroisoindol-2-yl]methanone (AT13387), a novel inhibitor of the molecular chaperone Hsp90 by fragment based drug design” (J Med Chem, 2010)
Converted amounts (≈) assume the structure as drawn. The source made the active and inactive calls. The rule behind the calls is not given here.

Experiments:
[1] = target: CYP3A4 (Homo sapiens, UniProt P08684); assay: Inhibition of CYP3A4 at 10 uM; assay type: ADME
[2] = target: T1, hERG (KCNH2) (Homo sapiens, UniProt Q12809); assay: in vitro; conditions: HEK293 cells expressing hERG
Description: Inhibition of human ERG expressed in HEK293 cells at 3 uM by patch clamp assay

[3] = target: T1, hERG (KCNH2); assay: in vitro; conditions: HEK293 cells expressing hERG; remark: listed apart in the source
Description: Inhibition of human ERG expressed in HEK293 cells at 30 uM by patch clamp assay

[4] = Clearance in BALB/c mouse plasma at 10 mg/kg, iv; assay type: ADME, organism-based; parameters: dose 10 mg/kg, route intravenous
[5] = Drug level in human HCT116 cells xenografted nude BALB/c mouse tumor at 80 mg/kg, iv after 24 hrs; assay type: ADME, organism-based, Neoplasm, HCT-116; parameters: dose 80 mg/kg, route intravenous; conditions: read-out: Drug uptake
[6] = Intrinsic clearance in mouse liver S9 fraction; assay type: ADME, subcellular; conditions: s9
[7] = Dissociation constant, pKa of the compound; assay type: physicochemical
[8] = tested on: HCT-116; assay: Antitumor activity against human HCT116 cells xenografted in BALB/c mouse assessed as inhibition of tumor growth at 80 mg/kg, ip qd for 8 days measured on day 12; assay type: functional; conditions: HCT-116, ip, route intraperitoneal
[9] = tested on: HCT-116; assay: Antitumor activity against human HCT116 cells xenografted in BALB/c mouse assessed as inhibition of tumor growth at 80 mg/kg, ip qd for 8 days measured on day 12 relative to control; assay type: functional; conditions: HCT-116, ip, route intraperitoneal
[10] = tested on: HCT-116; assay: Antitumor activity against human HCT116 cells xenografted in BALB/c mouse assessed as delay in tumor growth at 80 mg/kg, ip qd for 8 days; assay type: functional; conditions: route intraperitoneal
[11] = physchem; conditions: buffer, pH 7.4
[12] = target: Cytochrome P450 2C9 (Homo sapiens, UniProt P11712); assay: Binding affinity to CYP2C9; assay type: ADME
[13] = target: Cytochrome P450 2C19 (Homo sapiens, UniProt P33261); assay: Binding affinity to CYP2C19; assay type: ADME
[14] = Protein binding in human plasma after 6 hrs by equilibrium dialysis method; assay type: ADME, cell-free; conditions: read-out: PPB (converted)
[15] = Solubility of the compound in acetate buffer at 15 mg at pH 5.5; assay type: physicochemical
[16] = Solubility of the compound in phosphate buffer at 15 mg at pH 6.5; assay type: physicochemical
[17] = Solubility of the compound in phosphate buffer at 15 mg at pH 5.5; assay type: physicochemical
[18] = Solubility of the compound in lactate buffer at 15 mg at pH 4.2; assay type: physicochemical
[19] = Chemical stability of the compound after 24 hrs; assay type: physicochemical
[20] = Chemical stability of the compound after 48 hrs; assay type: physicochemical
[21] = Chemical stability of the compound after 144 hrs; assay type: physicochemical
[22] = Thermal stability of the compound at 80 degC after 24 hrs; assay type: physicochemical
[23] = tested on: HCT-116; assay: Cytotoxicity against human HCT116 cells at 30 uM by Alamar blue assay; assay type: functional, cell-based
[24] = tested on: HCT-116; assay: Cytotoxicity against human HCT116 cells at 100 uM by Alamar blue assay; assay type: functional
[25] = target: CYP2C9 (Homo sapiens, UniProt P11712); assay: Inhibition of CYP2C9 at 10 uM; assay type: ADME
[26] = target: CYP2C19 (Homo sapiens, UniProt P33261); assay: Inhibition of CYP2C19 at 10 uM; assay type: ADME
[27] = Protein binding in mouse plasma after 6 hrs by equilibrium dialysis method; assay type: ADME, cell-free; conditions: read-out: PPB (converted)
[28] = Clearance in BALB/c mouse plasma at 2 to 10 mg/kg, iv; assay type: ADME, organism-based; parameters: dose 2-10 mg/kg, route intravenous
[29] = Volume of distribution at steady state in BALB/c mouse plasma at 2 to 10 mg/kg, iv; assay type: ADME, organism-based; parameters: dose 2-10 mg/kg, route intravenous; conditions: read-out: Vdss
[30] = Half life in BALB/c mouse plasma at 2 to 10 mg/kg, iv; assay type: ADME, organism-based; parameters: dose 2-10 mg/kg, route intravenous
[31] = Half life in BALB/c mouse blood at 60 mg/kg, ip; assay type: ADME, organism-based; parameters: dose 60 mg/kg, route intraperitoneal
[32] = Half life in BALB/c mouse muscle at 60 mg/kg, ip; assay type: ADME, organism-based, Muscle tissue; parameters: dose 60 mg/kg, route intraperitoneal
[33] = Half life in human HCT116 cells xenografted BALB/c mouse tumor at 60 mg/kg, ip; assay type: ADME, organism-based, Neoplasm, HCT-116; parameters: dose 60 mg/kg, route intraperitoneal
[34] = tested on: HCT-116; assay: Induction of apoptosis in human HCT116 cells assessed as reduction of Raf-1 level at 30 nM after 18 hrs by immunoblotting; assay type: functional, cell-based
[35] = tested on: HCT-116; assay: Induction of apoptosis in human HCT116 cells assessed as reduction of CDK4 level at 30 nM after 18 hrs by immunoblotting; assay type: functional, cell-based
[36] = tested on: HCT-116; assay: Induction of apoptosis in human HCT116 cells assessed as upregulation of Hsp70 level at 10 nM after 18 hrs by immunoblotting; assay type: functional, cell-based
[37] = Oral bioavailability in BALB/c mouse; assay type: ADME, organism-based; conditions: in vivo
[38] = tested on: HCT-116; assay: Antitumor activity against human HCT116 cells xenografted in BALB/c mouse assessed as inhibition of tumor growth at 60 mg/kg, ip qd for 3 days then no dose for 3 days for four dosing cycles measured on day 21; assay type: functional; conditions: HCT-116, ip, route intraperitoneal
[39] = tested on: HCT-116; assay: Antitumor activity against human HCT116 cells xenografted in BALB/c mouse assessed as inhibition of tumor growth at 60 mg/kg, ip qd for 3 days then no dose for 3 days for four dosing cycles measured on day 21 relative to control; assay type: functional; conditions: HCT-116, ip, route intraperitoneal

T1 sequence (Q12809 whole entry): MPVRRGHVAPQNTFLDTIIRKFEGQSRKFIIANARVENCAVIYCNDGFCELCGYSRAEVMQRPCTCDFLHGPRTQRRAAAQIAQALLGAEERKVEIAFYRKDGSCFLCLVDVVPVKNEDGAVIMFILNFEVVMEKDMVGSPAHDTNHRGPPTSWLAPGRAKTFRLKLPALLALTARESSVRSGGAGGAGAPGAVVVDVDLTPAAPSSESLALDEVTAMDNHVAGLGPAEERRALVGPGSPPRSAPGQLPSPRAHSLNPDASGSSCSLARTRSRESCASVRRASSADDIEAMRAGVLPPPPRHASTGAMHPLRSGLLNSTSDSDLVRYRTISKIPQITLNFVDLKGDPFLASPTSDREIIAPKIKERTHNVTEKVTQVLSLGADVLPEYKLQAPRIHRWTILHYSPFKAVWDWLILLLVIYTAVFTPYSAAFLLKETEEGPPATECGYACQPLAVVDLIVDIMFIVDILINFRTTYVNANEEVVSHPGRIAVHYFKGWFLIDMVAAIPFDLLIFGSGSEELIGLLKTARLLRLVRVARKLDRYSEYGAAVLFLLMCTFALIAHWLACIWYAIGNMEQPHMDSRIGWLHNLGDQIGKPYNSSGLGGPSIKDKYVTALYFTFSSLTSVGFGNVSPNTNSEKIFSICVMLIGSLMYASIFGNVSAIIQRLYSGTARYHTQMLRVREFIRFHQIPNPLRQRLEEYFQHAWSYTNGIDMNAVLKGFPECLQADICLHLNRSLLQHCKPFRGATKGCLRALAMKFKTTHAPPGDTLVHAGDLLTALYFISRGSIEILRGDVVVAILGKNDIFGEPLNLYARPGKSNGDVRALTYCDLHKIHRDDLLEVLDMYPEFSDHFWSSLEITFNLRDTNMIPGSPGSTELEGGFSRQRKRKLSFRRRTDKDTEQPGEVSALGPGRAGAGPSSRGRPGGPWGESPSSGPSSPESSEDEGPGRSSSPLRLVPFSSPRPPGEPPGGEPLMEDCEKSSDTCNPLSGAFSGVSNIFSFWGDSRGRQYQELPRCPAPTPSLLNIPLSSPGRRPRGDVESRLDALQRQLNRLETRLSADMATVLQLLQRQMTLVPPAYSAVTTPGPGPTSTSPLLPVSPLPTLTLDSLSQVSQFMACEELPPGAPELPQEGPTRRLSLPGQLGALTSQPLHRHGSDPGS
Sequence of CYP3A4 (P08684 whole entry): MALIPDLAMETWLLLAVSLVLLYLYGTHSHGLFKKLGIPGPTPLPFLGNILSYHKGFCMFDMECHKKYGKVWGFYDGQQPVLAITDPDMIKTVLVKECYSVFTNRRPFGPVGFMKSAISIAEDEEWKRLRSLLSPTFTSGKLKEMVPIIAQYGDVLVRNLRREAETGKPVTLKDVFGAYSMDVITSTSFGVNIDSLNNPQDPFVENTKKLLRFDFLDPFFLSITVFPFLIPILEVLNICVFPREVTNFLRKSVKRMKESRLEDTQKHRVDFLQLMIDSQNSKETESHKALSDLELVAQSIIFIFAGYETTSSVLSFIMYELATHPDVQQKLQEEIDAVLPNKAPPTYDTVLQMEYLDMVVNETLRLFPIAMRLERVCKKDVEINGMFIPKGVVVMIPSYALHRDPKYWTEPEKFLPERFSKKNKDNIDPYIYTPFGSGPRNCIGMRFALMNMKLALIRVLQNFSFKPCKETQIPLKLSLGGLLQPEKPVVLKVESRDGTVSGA
Sequence of Cytochrome P450 2C19 (P33261 whole entry): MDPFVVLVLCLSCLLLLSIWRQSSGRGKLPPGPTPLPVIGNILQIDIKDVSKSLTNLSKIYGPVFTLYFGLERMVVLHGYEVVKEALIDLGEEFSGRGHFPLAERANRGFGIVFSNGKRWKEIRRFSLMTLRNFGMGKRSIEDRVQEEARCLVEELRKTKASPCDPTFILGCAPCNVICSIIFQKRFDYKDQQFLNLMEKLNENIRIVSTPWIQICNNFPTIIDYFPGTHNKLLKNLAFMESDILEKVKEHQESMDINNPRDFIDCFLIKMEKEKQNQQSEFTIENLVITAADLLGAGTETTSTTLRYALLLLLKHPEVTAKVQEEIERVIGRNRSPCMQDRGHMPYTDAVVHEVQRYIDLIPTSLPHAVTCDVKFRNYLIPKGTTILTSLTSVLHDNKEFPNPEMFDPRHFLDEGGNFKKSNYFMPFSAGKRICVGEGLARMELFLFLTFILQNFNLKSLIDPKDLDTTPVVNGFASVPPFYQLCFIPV
Sequence of CYP2C19 (P33261 whole entry): as above
Sequence of CYP2C9 (P11712 whole entry): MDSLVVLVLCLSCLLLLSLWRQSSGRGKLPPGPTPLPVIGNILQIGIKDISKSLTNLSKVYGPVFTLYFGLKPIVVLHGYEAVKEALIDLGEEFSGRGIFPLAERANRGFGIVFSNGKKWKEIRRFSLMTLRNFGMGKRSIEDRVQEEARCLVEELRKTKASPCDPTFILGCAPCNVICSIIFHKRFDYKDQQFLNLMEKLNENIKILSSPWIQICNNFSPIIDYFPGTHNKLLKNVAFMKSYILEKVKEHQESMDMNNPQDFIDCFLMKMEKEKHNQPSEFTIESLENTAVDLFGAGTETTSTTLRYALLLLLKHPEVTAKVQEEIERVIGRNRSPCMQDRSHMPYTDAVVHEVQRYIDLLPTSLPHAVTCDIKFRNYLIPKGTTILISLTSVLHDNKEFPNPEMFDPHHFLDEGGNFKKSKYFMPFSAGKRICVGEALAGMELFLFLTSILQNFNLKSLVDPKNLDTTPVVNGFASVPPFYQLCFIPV
Sequence of Cytochrome P450 2C9 (P11712 whole entry): as above

SMILES: CC(C)c1cc(C(=O)N2Cc3cccc(OCCN(C)C)c3C2)c(O)cc1O
- inhibition at 10 µM [1]: < 50%
- inhibition at 3 µM [2]: 43%
- inhibition at 30 µM [3]: 93%

SMILES: CC(C)c1cc(C(=O)N2Cc3ccc(OCCN(C)C)cc3C2)c(O)cc1O
- clearance [4]: 170 mL/min/kg
- concentration at 24 h [5]: 11 µM
- CL [6]: 0.034 mL/min/kg
- pKa [7]: 7.85
- inhibition in vivo at 80 mg/kg [8]: 63%
- inhibition in vivo at 80 mg/kg [9]: 37%
- Activity [10]: 11.4 days
- inhibition at 10 µM [1]: 34%
- logD [11]: 2.4
- inhibition at 3 µM [2]: 45%
- inhibition at 30 µM [3]: 87%

SMILES: CC(C)c1cc(C(=O)N2Cc3ccc(OCCN)cc3C2)c(O)cc1O
- Activity [12]: Active
- Activity [13]: Active
- inhibition at 3 µM [2]: 11%
- inhibition at 30 µM [3]: 64%

SMILES: CC(C)c1cc(C(=O)N2Cc3ccc(OCCNCC(C)(C)C)cc3C2)c(O)cc1O
- inhibition at 3 µM [2]: 53%
- inhibition at 30 µM [3]: 92%

SMILES: CC(C)c1cc(C(=O)N2Cc3cccc(N4CCN(C)CC4)c3C2)c(O)cc1O
- inhibition at 10 µM [1]: < 50%
- inhibition at 3 µM [2]: 41%
- inhibition at 30 µM [3]: 87%

SMILES: CC(C)c1cc(C(=O)N2Cc3ccc(C4(O)CCN(C)CC4)cc3C2)c(O)cc1O
- pKa [7]: 9.4
- fraction unbound at 6 h [14]: 0.36
- solubility [15]: > 30 mg/mL
- solubility [16]: 15 mg/mL (≈ 36.5 mM)
- solubility [17]: > 30 mg/mL
- solubility [18]: > 30 mg/mL
- Stability [19]: Stable
- Stability [20]: Stable
- Stability [21]: Stable
- Stability [22]: Unstable
- logD [11]: 1.7
- inhibition at 3 µM [2]: 15%
- inhibition at 30 µM [3]: 34%

SMILES: CC(C)c1cc(C(=O)N2Cc3ccc(NC4CCN(C)CC4)cc3C2)c(O)cc1O
- pKa [7]: 9.05
- fraction unbound at 6 h [14]: 0.36
- solubility [15]: < 3 mg/mL
- solubility [16]: < 3 mg/mL
- solubility [17]: < 3 mg/mL
- solubility [18]: < 3 mg/mL
- logD [11]: 1.7
- inhibition at 3 µM [2]: 25%
- inhibition at 30 µM [3]: 72%

SMILES: CC(C)c1cc(C(=O)N2Cc3ccccc3C2)c(O)c(F)c1O
- CL [6]: 0.004 mL/min/kg
- Activity [23]: inactive
- Activity [24]: 60%

SMILES: CC(C)c1cc(C(=O)N2Cc3ccc(CN4CCN(C)CC4)cc3C2)c(O)cc1O [ONALESPIB]
- CL [6]: 0.046 mL/min/kg
- pKa [7]: 7.7
- inhibition at 10 µM [25]: < 50%
- inhibition at 10 µM [26]: < 50%
- fraction unbound at 6 h [14]: 0.36
- fraction unbound at 6 h [27]: 0.09
- clearance [28]: 113 mL/min/kg
- Vd [29]: 11 L/kg
- half-life [30]: 0.9 h
- half-life [31]: 4.7 h
- half-life [32]: 3 h
- half-life [33]: 65 h
- Activity [34]: Active
- Activity [35]: Active
- Activity [36]: Active
- bioavailability [37]: 31%
- inhibition in vivo at 60 mg/kg [38]: 78%
- inhibition in vivo at 60 mg/kg [39]: 22%
- solubility [15]: > 30 mg/mL
- solubility [16]: 15 mg/mL (≈ 36.6 mM)
- solubility [17]: > 30 mg/mL
- solubility [18]: > 30 mg/mL
- Stability [19]: Stable
- Stability [20]: Stable
- Stability [21]: Stable
- Stability [22]: Stable
- logD [11]: 2.7
- inhibition at 3 µM [2]: 7%
- inhibition at 30 µM [3]: 42%

SMILES: CC(C)c1cc(C(=O)N2Cc3cccc(OCCCN4CCOCC4)c3C2)c(O)cc1O
- pKa [7]: 7
- logD [11]: 3.55
- inhibition at 3 µM [2]: 23%
- inhibition at 30 µM [3]: 83%

SMILES: CC(C)c1cc(C(=O)N2Cc3ccc(C(=O)N4CCN(C)CC4)cc3C2)c(O)cc1O
- pKa [7]: 6.8
- fraction unbound at 6 h [14]: 0.36
- fraction unbound at 6 h [27]: 0.29
- logD [11]: 2.1
- inhibition at 3 µM [2]: 21%
- inhibition at 30 µM [3]: 49%
